The values below come from patent publication US20220362348A1, “LACTOFERRIN, DERIVED PEPTIDE THEREOF AND METHOD THEREOF FOR INHIBITING AND/OR ALLEVIATING LIPID SYNTHESIS” (RENORIGIN INNOVATION INSTITUTE CO., LTD., priority 2021, published 2022).

The test system of the assay is Human sebocytes. The assay is described as follows: Neutral fat detection (Nile red staining, fluorescence intensity) in linoleic acid-induced sebocytes. The settings on record: for concentration dependence of inhibition of LA-induced lipid content: FIGS. 1-4, lactoferrin 100-400 μg/mL, peptides 25-100 μg/mL. Type of assay: cell-based. The method, then: Human sebocytes (Cat. No. 36079-01, Celprogen, Torrance, Calif., USA) were cultured in Dulbecco's Modified Eagle Medium (DMEM): Nutrient Mixture F-12 (DMEM/F12) purchased from Thermo Fisher Scientific Limited (Barrington, Ill., USA), 10% fetal bovine serum (FBS) purchased from Gibco, Grand Island, N.Y., USA and penicillin/streptomycin (100 IU/50 […]), incubated at 37° C. in the 5% CO2 atmosphere.
Human sebocytes were implanted in 24- or 96-well plates. After 24 hours of culture, the cells were divided into a negative control group, a positive control group and an experimental group. […] The treated human sebocytes were cultured for two days. Human sebocytes were fixed with 4% formaldehyde at room temperature. After 60 minutes of fixation, the cells were washed with PBS and stained with Nile Red solution (1 μg/ml in PBS) at 37° C. for 15 minutes. Next, the cells were washed and observed under a fluorescent microscope. Fluorescence intensity is measured with fluorometer Spectra Max i3.

The mark [1] stands for this setting: FIG. 5, 0.1 mM LA + 50 μg/mL peptide.
Setting [2] is: FIG. 5, 0.1 mM LA + 50 μg/mL peptide, negative control about 1.0, positive control about 2.5.
Where [3] appears, read: FIGS. 2-4, 0.1 mM LA + 25 to 100 μg/mL peptide.
Where [4] appears, read: FIGS. 2-4 D, 0.1 mM LA + 25 μg/mL peptide, two days, negative control about 1.0.
Where [5] appears, read: FIGS. 2-4 D, 0.1 mM LA + 50 μg/mL peptide, two days, negative control about 1.0.
Setting [6] is: FIGS. 2-4 D, 0.1 mM LA + 100 μg/mL peptide, two days, negative control about 1.0.

As to “lactoferrin peptide 69-75: Derived peptide of lactoferrin comprising the amino acid sequence of SEQ ID NO: 02 (RDPYKLR; Lactoferrin derived peptide)”, the “concentration dependence of inhibition of LA-induced lipid content” value is on record as “dose-dependent manner”. Also, under setting [1], the “lipid content reduced compared with positive control group (LA)” value (“lipid content reduced” for short) was 40%. Under setting [2], the “fluorescence intensity (lipid content, Nile red)” value (“fluorescence intensity” for short) is “about 1.5”. In addition, the “lipid content reduced” value under setting [3] was 25%. Also, the “fluorescence intensity” value under setting [4] is recorded as “about 1.5”. Also, the “fluorescence intensity” value under setting [5] is recorded as “about 1.5”. The “fluorescence intensity” value under setting [6] is reported as “about 1.5”.

For “lactoferrin peptide 85-91: Derived peptide of lactoferrin comprising the amino acid sequence of SEQ ID NO: 03 (KESPQTH; Lactoferrin derived peptide)”, the “concentration dependence of inhibition of LA-induced lipid content” value was “dose-dependent manner”. For the same molecule, under setting [1], the “lipid content reduced” value is reported as 40%. Besides, under setting [2], the “fluorescence intensity” value was “about 1.5”. Moreover, the “lipid content reduced” value under setting [3] is 25%. Also, the “fluorescence intensity” value under setting [4] is on record as “about 1.5”. Further, the “fluorescence intensity” value under setting [5] was “about 1.5”. Further, the “fluorescence intensity” value under setting [6] was “about 1.5”.

As to `CCCCC/C=C\C/C=C\CCCCCCCC(=O)O` [LA, linoleic acid, reference compound], the “lipid content induced by LA relative to negative control group” value (0.1 mM linoleic acid (LA) alone) was “more than 2 times”.

Take “lactoferrin peptide 695-701: Derived peptide of lactoferrin comprising the amino acid sequence of SEQ ID NO: 04 (KKCSTSP; Lactoferrin derived peptide)”: the “concentration dependence of inhibition of LA-induced lipid content” value is recorded as “dose-dependent manner”. Further, under setting [1], the “lipid content reduced” value came out at 40%. For the same molecule, the “fluorescence intensity” value under setting [2] is “about 1.5”. The “lipid content reduced” value under setting [3] came out at 25%. Besides, under setting [4], the “fluorescence intensity” value is “about 1.5”. Moreover, the “fluorescence intensity” value under setting [5] is reported as “about 1.5”. Further, the “fluorescence intensity” value under setting [6] is recorded as “about 1.5”.
